In patent US20100260680A1, “NOVEL BONE MASS INCREASING AGENT” (ORIENTAL YEAST CO., LTD., priority 2007, published 2010):
Bridges are numbered along the chain shown (N, C = ends). Where no end group is shown, it is not given here.

Tests used:
RANKL = target: T1, RANKL (Homo sapiens, UniProt O14788); settings: Aoki et al., J Clin Invest 116: 1525, 2006; cited from earlier work
T1 sequence (O14788 140-317 limits assumed): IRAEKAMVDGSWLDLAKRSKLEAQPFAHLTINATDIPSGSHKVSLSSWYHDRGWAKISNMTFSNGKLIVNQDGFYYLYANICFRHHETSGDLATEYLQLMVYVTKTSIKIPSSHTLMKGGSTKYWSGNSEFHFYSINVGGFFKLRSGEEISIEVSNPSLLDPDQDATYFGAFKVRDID

Smad1/5/8 = assay: Western blotting of Smad1/5/8 phosphorylation in MC3T3-E1 cells; type: cell-based, mouse; settings: up to 3 hours after the addition; 200 μM peptide D or 200 ng/ml BMP-2
Procedure: MC3T3-E1 cells mixed with 10% FBS+αMEM (SIGMA) were seeded on a 6-well plate (7.5×10^4 cells/well). […] The medium was removed at the respective time points shown in the relevant figures. PBS was added to the cells, and the cells were collected with a scraper (Falcon). A cell pellet was obtained via centrifugation at 1200 rpm for 5 min at 4° C. RIPA buffer (100 μL) was added to the collected pellet, for dissolution of the cellular membrane. Further, the resultant was centrifuged under conditions of 14500 rpm for 25 min at 4° C. The supernatant was collected as a cell extract. A portion of the cell extract was used for quantification of the protein concentration with the use of a BCA protein assay kit (PIERCE). For SDS-PAGE, a sample buffer in an amount that was ¼ that of the cell extract (Fermentas) was added thereto, followed by heating at 95° C. for 5 min. The prepared sample was applied in an amount of 7.5 or 10 μg to 10% polyacrylamide gel (BioRad), followed by electrophoresis at 170 V for 1 hour. After electrophoresis, the electrophoresed sample was transferred to a PVDF membrane (Millipore) at 80 mA for 40 min. The membrane was shaken in a blocking solution (Nacalai) at room temperature for 1 hour and then a primary antibody was added thereto, followed by shaking at room temperature for 1 hour at 4° C. for 12 hours. […]

mouse osteoblasts = assay: ALP activity determination in mouse osteoblasts; type: cell-based; settings: 300 μM; differentiation medium; Day 7
Procedure: Seven days after differentiation, the culture supernatant was removed from each plate and the cells were fixed with an acetone/ethanol solution. The ALP activity was determined using p-nitrophenyl phosphate as a substrate. Specifically, a carbonate buffer (5 mM MgCl2, 50 mM NaHCO3) containing p-nitrophenyl phosphate (Nacalai) (1 mg/mL) was added to each well (100 μL/well), followed by incubation at 37° C. Then, the OD value at 405 nm was determined with the use of a microplate reader (BMG Labtech) for each well.
For experiments, a goat polyclonal mRANKL antibody (R&D, Saint Cruz), monoclonal mRANKL antibodies ((A): clone 88227 (R&D); (B): clone 12A668) (ALEXIS), and synthetic peptide D were used. As negative controls, goat IgG (ZYMED) and a control peptide were used. Synthetic peptide D and the control peptide used were the same as those used in Example 1. […] ALP activity determination was carried out as in Example 1.
Newborn mouse calvarias were immersed in an enzyme solution (0.1% collagenase (Wako)+0.2% Dispase (GODO SHUSEI CO., LTD.)), followed by shaking in a thermostatic bath at 37° C. for 5 minutes. The initial floating cell fraction was removed therefrom and a new enzyme solution (10 mL) was added thereto, followed by another instance of shaking in a thermostatic bath at 37° C. for 10 minutes. The above operations were repeated 4 times. […]

MC3T3-E1 cells = assay: DNA microarray analysis of MC3T3-E1 cells; type: cell-based, mouse; settings: 200 μM peptide D (acetate)
Procedure: MC3T3-E1 cells mixed with 10% FBS+αMEM (SIGMA) were seeded on a 10 cm dish (2×10^5 cells/well). After 12 hours, the medium was removed therefrom. […] The medium was partially removed at 12 and 96 hours, at which time TRIZOL solution (Invitrogen) (3 mL) was added to each well for cell lysis. Then, total RNA extraction was carried out by the method described in Example 15. Each extracted total RNA (2 μg) was subjected to DNA microarray analysis (Mouse Genome 430 2.0 Affymetrix). In addition, scanning was performed with a GeneChip Scanner 3000 (Affymetrix 690036) and digitalization was performed with the Gene Chip Operating Software ver. 1.4.

peptide D: cyclic peptide of SEQ ID NO: 7, 9 amino acids, two cysteine residues bound via a disulfide bond; binds to RANKL (YCWSQYLCY; disulfide 2-8 (inferred))
binding to RANKL (RANKL): binds to RANKL | phosphorylation of Smad1/5/8 (Smad1/5/8): not induced | ALP activation (mouse osteoblasts): caused an increase in the degree of ALP activation | expression level of the osteocalcin (OC) gene (MC3T3-E1 cells): increased sharply | gene expression levels of IRS-1, IGF-1, FGF receptor 2, PDGF receptor β, PDGF receptor α, CTGF, type I collagen α1 and α2 chains (MC3T3-E1 cells; 12 hours): increased significantly | gene expression levels of IGF-2, ALP, BMP-4, OC (osteocalcin), FGF2, PDGFc, PDGFα, PDGFβ (MC3T3-E1 cells; 96 hours): increased significantly
